This is an account of results in publication PMC8986778, “Citrullination of glucokinase is linked to autoimmune diabetes” (Nature Communications, 2022).

For assay [1], the system named is glucokinase. The settings on record: randomized, double-blind and placebo-controlled study; cited from earlier work. The source says:
As mentioned above, ATP-dependent GK converts glucose to glucose-6-phosphate, the critical step in glucose metabolism. Alternative splicing of the GK gene results in three tissue-specific isoforms, isoform 1 (pancreas) and isoforms 2 and 3 (liver). The only difference among three GK isoforms is in the amino acid sequence of exon 1 in the first fifteen amino acids of human pancreatic glucokinase. Unlike other hexokinases, GK is not regulated by feedback inhibition by glucose-6-phosphate. Therefore, GK can constitutively trigger insulin secretion in pancreatic β-cells under high glucose cond ...

The test system of assay [2] is INS-1E cells. In words: Protein citrullination immunoblot (anti-modified citrulline). Type of assay: cell-based, rat. The following applies: IFNγ 100U/ml plus IL-1β 5U/ml, 5 µM YW3-56, 48 hrs. The source says: Presence of citrullinated protein was detected by using anti-citrulline (Abcam, ab6464) for immunohistochemistry as described elsewhere, by using anti-peptidyl-citrulline, clone F95 (Millipore, MABN328) for flow cytometry and confocal microscopy and by using anti-modified citrulline detection kit, clone C4 (Millipore, 17-347B) for immunoblot according to manufacturer’s protocol. The specificity and sensitivity of the above commercial antibodies for the detection of protein citrullination were described previously[47],[48] and in our recent reports[9],[51],[52].
For insulin secretion assay, the INS-1E cells, a gift from Prof. Wollheim (CMU, Geneva, Switzerland)[53], were seeded on 6 well plate and cultured with recombinant mouse IFNγ (100 units/mL; R&D Systems) and recombinant human IL-1β (5 units/mL; R&D Systems) in the presence or absence of PAD2/PAD4 inhibitor (5 µM YW3-56; Cayman) for 48 hrs. Cells were washed and starved for 1 hr in low-glucose KREBS buffer (138 mM NaCl, 4.7 mM KCl, 1 mM CaCl2, 1.18 mM KH2PO4, 1.18 mM MgSO4, 5 mM NaHCO3, 25 mM Hepes (pH7.4), 0.1% BSA and 2.5 mM glucose). […] After another 1 hr incubation, supernatants were collected and assayed for insulin by using Rat High Range Insulin ELISA kit (ALPCP) according to manufacturer’s protocol and analyzed using Microsoft excel Software. […]
Background: Immunoblotting shows a protein as a band on a membrane.

Assay [3] has as its system PAD4. The settings on record: pan-PAD inhibitor; no reference printed (compound from Cayman); cited from earlier work. The procedure: Proinflammatory cytokines are known to attenuate glucose stimulated insulin secretion (GSIS), mediated by glucokinase, as studied elsewhere[29]–[31]. We utilized a subclonal cell line from the parenteral INS-1 cells, INS-1E, to examine GSIS and how citrullination may alter the glucose sensing/insulin secreting metabolic pathway. We also utilized YW3-56, a pan-PAD inhibitor (IC50: […] and 1–5 µM for PAD2 and PAD4, respectively), in studies of GSIS in INS-1E cells as a means of blocking protein citrullination. First, we confirmed by immunoblot detection of citrulline that IFNγ+ IL-1β cytoki ...

For assay [4], the system named is INS-1E cells. In words: Insulin secretion assay. Type of assay: cell-based, rat. The procedure: For insulin secretion assay, the INS-1E cells, a gift from Prof. Wollheim (CMU, Geneva, Switzerland)[53], were seeded on 6 well plate and cultured with recombinant mouse IFNγ (100 units/mL; R&D Systems) and recombinant human IL-1β (5 units/mL; R&D Systems) in the presence or absence of PAD2/PAD4 inhibitor (5 µM YW3-56; Cayman) for 48 hrs. Cells were washed and starved for 1 hr in low-glucose KREBS buffer (138 mM NaCl, 4.7 mM KCl, 1 mM CaCl2, 1.18 mM KH2PO4, 1.18 mM MgSO4, 5 mM NaHCO3, 25 mM Hepes (pH7.4), 0.1% BSA and 2.5 mM glucose). Assay buffer was then replaced with KREBS buffer containing either varying glucose concentration (2.5, 5, 9 and 16.7 mM), 10 mM sodium pyruvate or 30 mM KCl. After another 1 hr incubation, supernatants were collected and assayed for insulin by using Rat High Range Insulin ELISA kit (ALPCP) according to manufacturer’s protocol and analyzed using Microsoft excel Software. All experiments were performed using INS-1E cells between the 61st and 65th passage.

On to `CCCO[C@H]1CC[C@H](N(C(=O)Nc2ncc(SCC(=O)O)s2)C2CCCCC2)CC1` [TTP399], for which the “clinical effect in patients with T1D” value in assay [1] was “lower HbA1C and reduce hypoglycemia without increasing the risk of ketosis”.

A word on the IC50: it is the concentration at which inhibition is half-maximal. On to YW3-56, for which the “IFNγ+ IL-1β cytokine-induced citrullination levels” value in assay [2] is “reduced”. Moreover, in assay [3], the IC50 is 1000 to 5000 nM. Moreover, the “citrullination levels or GSIS, inhibitor alone” value in assay [4] (5 µM YW3-56 without cytokines, 48 hrs) is on record as “did not affect”. Besides, in assay [4] (10 mM sodium pyruvate, 5 µM YW3-56 with cytokines 48 h), the “cytokine-mediated suppression of insulin secretion upon pyruvate stimulation” value was “able to correct”. In addition, the “IFNγ + IL-1β suppressed GSIS” value in assay [4] (16.7 mM glucose, YW3-56 cocultured with cytokines for 48 h) is “partially correct”. Besides, the “insulin secretion to depolarization with KCL” value in assay [4] (30 mM KCl, cytokines in the presence or absence of YW3-56) was “not affected”. The insulin secretion in assay [4] (YW3-56 alone (no cytokine), glucose 2.5 (head prints nM), replicate 1) was 20.6698; in assay [4] (YW3-56 alone, KCl, replicate 1), 216.859; in assay [4] (YW3-56 alone, KCl, replicate 2), 173.302; in assay [4] (YW3-56 alone, KCl, replicate 3), 216.475; in assay [4] (YW3-56 alone, glucose 2.5 (head prints nM), replicate 2) it was 24.1975; in assay [4] (YW3-56 alone, glucose 2.5 (head prints nM), replicate 3), 21.4049. The insulin secretion in assay [4] (YW3-56 alone, glucose 5 (head prints nM), replicate 1) worked out at 75.1459; in assay [4] (YW3-56 alone, glucose 5 (head prints nM), replicate 2), 84.4819; in assay [4] (YW3-56 alone, glucose 5 (head prints nM), replicate 3) it was 61.4806; in assay [4] (YW3-56 alone, glucose 16.7 (head prints nM), replicate 1) it was 227.056; in assay [4] (YW3-56 alone, glucose 16.7 (head prints nM), replicate 2), 273.99; in assay [4] (YW3-56 alone, glucose 16.7 (head prints nM), replicate 3), 236.558. Besides, the insulin secretion in assay [4] (YW3-56 alone, pyruvate, replicate 1) is recorded as 292.452; in assay [4] (YW3-56 alone, pyruvate, replicate 2), 273.99; in assay [4] (YW3-56 alone, pyruvate, replicate 3), 273.99; in assay [4] (cytokine (IFNγ + IL-1β) + YW3-56 5 µM 48 hrs, 1 hr glucose 2.5 (head prints nM), replicate 1), 42.5356; in assay [4] (cytokine + YW3-56 48 hrs, KCl, replicate 1), 91.8746; in assay [4] (cytokine + YW3-56 48 hrs, KCl, replicate 2) it was 82.0356. Besides, the insulin secretion in assay [4] (cytokine + YW3-56 48 hrs, KCl, replicate 3) was found to be 59.5376; in assay [4] (cytokine + YW3-56 48 hrs, glucose 2.5 (head prints nM), replicate 2), 26.9388; in assay [4] (cytokine + YW3-56 48 hrs, glucose 2.5 (head prints nM), replicate 3) it was 26.5034; in assay [4] (cytokine + YW3-56 48 hrs, glucose 5 (head prints nM), replicate 1), 38.7513; in assay [4] (cytokine + YW3-56 48 hrs, glucose 5 (head prints nM), replicate 2), 47.2935; in assay [4] (cytokine + YW3-56 48 hrs, glucose 5 (head prints nM), replicate 3), 37.2188. Besides, the insulin secretion in assay [4] (cytokine + YW3-56 48 hrs, glucose 16.7 (head prints nM), replicate 1) was 95.9987; in assay [4] (cytokine + YW3-56 48 hrs, glucose 16.7 (head prints nM), replicate 2), 101.342; in assay [4] (cytokine + YW3-56 48 hrs, glucose 16.7 (head prints nM), replicate 3) it was 93.7876; in assay [4] (cytokine + YW3-56 48 hrs, pyruvate, replicate 1), 78.6578; in assay [4] (cytokine + YW3-56 48 hrs, pyruvate, replicate 2), 90.7306; in assay [4] (cytokine + YW3-56 48 hrs, pyruvate, replicate 3), 140.964.
